Reference: DBAASP
≈ marks a conversion by molar mass, not a printed value.

What was measured:
Test in all cases: ≥ marks a high value that may be exact or a test limit, other limits are often not marked, values filed in µg/mL are converted to µM
[1] = tested on: Candida albicans ATCC 36232
[2] = tested on: Escherichia coli ATCC 2592
[3] = tested on: Micrococcus luteus ATCC 9341
[4] = tested on: Proteus vulgaris ATCC 6380
[5] = tested on: Pseudomonas aeruginosa ATCC 9027
[6] = tested on: Staphylococcus aureus ATCC 6538
[7] = tested on: Staphylococcus aureus
[8] = tested on: Acinetobacter baumannii
[9] = tested on: Bacillus subtilis 168
[10] = tested on: Escherichia coli BNCC 133264
[11] = tested on: Escherichia coli K-12
[12] = tested on: Escherichia coli
[13] = tested on: Klebsiella pneumoniae
[14] = tested on: Listeria monocytogenes
[15] = tested on: Pseudomonas aeruginosa BNCC 125486
[16] = tested on: Pseudomonas aeruginosa PAO1
[17] = tested on: Staphylococcus aureus BNCC 186335
[18] = tested on: Staphylococcus aureus USA 300
[19] = tested on: Candida glabrata 090902
[20] = tested on: Enterobacter cloacae CGMCC 1.57
[21] = tested on: Enterococcus faecalis 981
[22] = tested on: Nocardia asteroides
[23] = tested on: Psychrobacter faecalis X29
[24] = tested on: Staphylococcus aureus ATCC 25923
[25] = tested on: Candida albicans ATCC 90028
[26] = tested on: Candida parapsilosis ATCC 22019
[27] = tested on: Enterobacter cloacae ATCC 13047
[28] = tested on: Escherichia coli 117
[29] = tested on: Klebsiella pneumoniae ATCC 700603
[30] = tested on: Pseudomonas aeruginosa ATCC 27853
[31] = tested on: Pseudomonas aeruginosa CMCCB 1010
[32] = tested on: Pseudomonas aeruginosa
[33] = tested on: Shigella dysenteriae
[34] = tested on: Staphylococcus aureus 10
[35] = tested on: Staphylococcus aureus 37
[36] = tested on: Staphylococcus aureus A170
[37] = tested on: Staphylococcus epidermidis
[38] = tested on: Escherichia coli W160-37
[39] = tested on: Aspergillus fumigatus
[40] = tested on: Escherichia coli D22
[41] = tested on: Micrococcus luteus A270
[42] = tested on: Neurospora crassa CBS 327-54
[43] = tested on: Pseudomonas aeruginosa PTCC 2834
[44] = tested on: Staphylococcus aureus PTCC 1442

## CC[C@H](C)[C@H](NC(=O)[C@H](CCCCN)NC(=O)[C@@H]1CCCN1C(=O)[C@H](CC(C)C)NC(=O)[C@H](Cc1ccccc1)NC(=O)[C@H](CC(N)=O)NC(=O)[C@H](C)N)C(=O)N[C@@H](Cc1ccccc1)C(=O)N[C@@H](CS)C(=O)N[C@@H](CCCCN)C(=O)N[C@H](C(=O)N[C@H](C(=O)N[C@@H](CCCN=C(N)N)C(=O)N[C@@H](CCCCN)C(=O)N[C@@H](CS)C(N)=O)[C@@H](C)O)[C@@H](C)CC [ANFLPKIFCKITRKC]
[1]
  MIC: 28.1 µM (≈ 50 µg/mL)
[2]
  MIC: 28.1 µM (≈ 50 µg/mL)
[3]
  MIC: 14 µM (≈ 25 µg/mL)
[4]
  MIC: ≥ 56.1 µM
[5]
  MIC: 28.1 µM (≈ 50 µg/mL)
[6]
  MIC: 56.1 µM (≈ 99.9 µg/mL)
[7]
  MIC: > 56.1 µM

## CC[C@H](C)[C@H](NC(=O)[C@H](CCCCN)NC(=O)[C@@H]1CCCN1C(=O)[C@@H](NC(=O)[C@H](CC(C)C)NC(=O)[C@H](CCCCN)NC(=O)[C@H](CC(C)C)NC(=O)[C@@H](NC(=O)[C@H](CO)NC(=O)CNC(=O)[C@H](Cc1ccccc1)NC(=O)[C@@H](N)Cc1ccccc1)C(C)C)[C@@H](C)CC)C(=O)N[C@@H](CC(C)C)C(N)=O [FFGSVLKLIPKIL]
[8]
  MIC: ≥ 43.4 µM
[9]
  MIC: 6.25 µM (≈ 9.21 µg/mL)
[10]
  MIC: ≥ 43.4 µM
[11]
  MIC: 25 µM (≈ 36.8 µg/mL)
[12]
  MIC: 21.7 µM (≈ 32 µg/mL)
[13]
  MIC: > 43.4 µM
[14]
  MIC: 1.36 µM (≈ 2 µg/mL)
[15]
  MIC: ≥ 86.8 µM
[16]
  MIC: > 100 µM
[17]
  MIC: 1.36 µM (≈ 2 µg/mL)
[18]
  MIC: 3.12 µM (≈ 4.6 µg/mL)
[7]
  MIC: 1.36 µM (≈ 2 µg/mL)

## CC[C@H](C)[C@H](NC(=O)[C@H](CC(C)C)NC(=O)CNC(=O)[C@H](CO)NC(=O)[C@@H](NC(=O)[C@@H](N)Cc1ccccc1)[C@@H](C)CC)C(=O)NCC(=O)NCC(=O)N[C@@H](CC(C)C)C(=O)N[C@@H](CCSC)C(=O)N[C@@H](CCCCN)C(=O)N[C@@H](C)C(=O)N[C@@H](CC(C)C)C(N)=O [FISGLIGGLMKAL]
[19]
  MIC: ≥ 100 µM
[20]
  MIC: ≥ 400 µM
[21]
  MIC: ≥ 50 µM
[22]
  MIC: 25 µM (≈ 33 µg/mL)
[23]
  MIC: ≥ 200 µM
[24]
  MIC: 25 µM (≈ 33 µg/mL)

## CC[C@H](C)[C@H](N)C(=O)N[C@@H](CC(N)=O)C(=O)N[C@@H](CC(C)C)C(=O)N[C@@H](CCCCN)C(=O)N[C@@H](C)C(=O)N[C@H](C(=O)N[C@@H](C)C(=O)N1CCC[C@H]1C(=O)N[C@@H](CC(C)C)C(=O)N[C@@H](C)C(=O)N[C@@H](CCCCN)C(=O)N[C@@H](CCCCN)C(=O)N[C@@H](CC(C)C)C(=O)N[C@@H](CC(C)C)C(=O)O)[C@@H](C)CC [INLKAIAPLAKKLL]
[25]
  MIC: 13.3 µM (≈ 20 µg/mL)
[26]
  MIC: 13.3 µM (≈ 20 µg/mL)
[27]
  MIC: 26.6 µM (≈ 40 µg/mL)
[28]
  MIC: ≥ 53.1 µM
[29]
  MIC: 13.3 µM (≈ 20 µg/mL)
[30]
  MIC: 6.64 µM (≈ 10 µg/mL)
[31]
  MIC: 6.64 µM (≈ 10 µg/mL)
[32]
  MIC: 53.1 µM (≈ 80 µg/mL)
[33]
  MIC: 6.64 µM (≈ 10 µg/mL)
[34]
  MIC: 26.6 µM (≈ 40 µg/mL)
[35]
  MIC: ≥ 53.1 µM
[24]
  MIC: 53.1 µM (≈ 80 µg/mL)

## CC[C@H](C)[C@H](NC(=O)[C@@H]1CCCN1C(=O)[C@H](CC(C)C)NC(=O)[C@@H](N)CC(C)C)C(=O)N[C@H](C(=O)NCC(=O)N[C@@H](CC(N)=O)C(=O)N[C@@H](CC(C)C)C(=O)N[C@@H](CC(C)C)C(=O)N[C@@H](CCCCN)C(=O)N[C@@H](C)C(=O)N[C@@H](CC(C)C)C(=O)N[C@@H](CC(C)C)C(=O)O)C(C)C [LLPIVGNLLKALL]
[36]
  MIC: 7.26 µM (≈ 10 µg/mL)
[37]
  MIC: 14.5 µM (≈ 20 µg/mL)

## CC[C@H](C)[C@H](NC(=O)[C@H](CCCCN)NC(=O)[C@H](CCCCN)NC(=O)[C@H](Cc1c[nH]c2ccccc12)NC(=O)[C@H](CCCCN)NC(=O)[C@H](CO)NC(=O)[C@H](CC(C)C)NC(=O)[C@H](Cc1ccccc1)NC(=O)[C@@H](NC(=O)[C@H](CCCCN)NC(=O)[C@H](CC(C)C)NC(=O)[C@H](CC(C)C)NC(=O)[C@H](CCCCN)NC(=O)[C@@H]1CCCN1)[C@@H](C)O)C(=O)NCC(=O)O [PKLLKTFLSKWKKIG]
[38]
  MIC: 22 µM (≈ 39.3 µg/mL)
[7]
  MIC: 17 µM (≈ 30.4 µg/mL)

## CSCC[C@H](NC(=O)[C@H](CO)NC(=O)[C@@H](N)CO)C(=O)N[C@@H](CCCCN)C(=O)N[C@@H](CC(C)C)C(=O)N[C@@H](CO)C(=O)N[C@@H](Cc1ccccc1)C(=O)N[C@@H](CCCN=C(N)N)C(=O)N[C@@H](C)C(=O)N[C@@H](CCCN=C(N)N)C(=O)N[C@@H](C)C(=O)N[C@@H](Cc1ccc(O)cc1)C(=O)NCC(=O)N[C@@H](Cc1ccccc1)C(=O)N[C@@H](CCCN=C(N)N)C(=O)NCC(=O)N1CCC[C@H]1C(=O)NCC(=O)N1CCC[C@H]1C(=O)N[C@@H](CCC(N)=O)C(=O)N[C@@H](CC(C)C)C(=O)O [SSMKLSFRARAYGFRGPGPQL]
[39]
  MIC: ≥ 80 µM
[40]
  MIC: ≥ 150 µM
[41]
  MIC: 15 µM (≈ 34.9 µg/mL)
[42]
  MIC: ≥ 50 µM
[43]
  MIC: 20.6 µM (≈ 48 µg/mL)
[44]
  MIC: ≥ 43 µM
